The subject of data set [1] is S.e. (clin. isolate Motol). The class given is cell-based, Staphylococcus epidermidis. As to conditions: 37° C for 20 h. The method, boiled down: (§1)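 MIC, quantitative, from growth curves (A540 every 15 min, 20 h, 37 °C, continuous shaking). Inoculum ~10^5 CFU/well; peptide final 0.5–100 µmol.l^-1 in LB; E. faecalis pregrown in BHI, rest in LB. Tetracycline standard over same range.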

For data set [2], the system named is Candida albicans (clin. isolate Olomouc). Nature of the data set: Biofilm formation on the surface of a bone cement implant in femur heads. To be noted: two days, cement without peptide 8.0x10^4. The class given is cell-based.
Description: (§3) The resulting elastic paste is placed into a 2 ml plastic syringe (without needle) and pressed into the infected holes in the spongy part of the bone, where it polymerizes and hardens. For comparison, other similarly infected holes are filled with cement containing only an antibiotic or antimycotic agent. For comparison, a Vancogenx® cement (Tecresa S. p. A., Italy) is used, made from a mixture of a powdered polymer component containing vancomycin and gentamicin. The mixture in an amount of 125 mg is mixed with liquid monomer (50-60 µl) and then pressed into the openings as described above. In another embodiment, the cements are applied to uninfected holes, allowed to harden, and then microbes are pipetted into the hole excavated between implants. From there they penetrate through bone tissue and settle on the implants with consequent formation of biofilms.
After two days, implants are removed with metal spikes and tweezers, mechanically cleaned from debris of bone tissue, and washed four times with physiological saline (0.5 ml) in plastic tubes to remove any residual planktonic microbes or bone cells from their surface. The implants in closed tubes with 0.4 ml saline are then sonicated four times for 3 min with occasional shaking. The of microbial biofilm on the surface of the implant is thus disrupted and microbes are loosed into the physiological saline. The resulting suspension is subsequently diluted using the tenfold serial dilution for culturing on agar.
Evaluation of the effect of antimicrobial peptides on the formation of microbial biofilm on the surface of the implant made of the bone cement.
Data set [3] concerns P.a. 5482. It counts as cell-based, Pseudomonas aeruginosa. To be noted: 37° C for 20 h. The method, boiled down: as §1
Data set [4] relates to P.a. (clin. isolate Liberec). It counts as cell-based, Pseudomonas aeruginosa. To be noted: 37° C for 20 h. The method, boiled down: (§2)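 Exponential-phase cultures, diluted in fresh medium (BHI for E. faecalis, LB for the others), were added to peptides in LB at final 0.5 to 100 µmol.l^-1, ca 10^5 CFU per well. Plates were shaken at 37 °C for 20 h with A540 read every 15 min; MIC was taken from growth.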

The test system of data set [5] is Candida albicans. The class given is cell-based. As to conditions: C.a.; 37° C for 20 h.
In data set [6] the test system is Bacillus subtilis. The class given is cell-based. To be noted: B.s.; 37° C for 20 h. Put shortly: as §2
Data set [7] deals with Escherichia coli. The class given is cell-based. As to conditions: E.c.; 37° C for 20 h. Put shortly: as §2
In data set [8] the test system is E.f. (clin. isolate Motol). It counts as cell-based, Enterococcus faecalis. To be noted: 37° C for 20 h. Put shortly: as §1
Data set [9] concerns human red blood cells. Nature of the data set: Determination of haemolytic activity. The class given is cell-based. As to conditions: human red blood cells (5% v/v), 1 h at 37 °C; concentration for lysis of 50% of erythrocytes. The method, boiled down: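 Peptides at 2-400 µmol.1^-1 were incubated with 5% v/v human erythrocytes in physiological solution for 1 h at 37 °C; haemoglobin release measured as supernatant absorbance at 540 nm after centrifugation, with 0.2% Triton X-100 as 100% lysis. Reported as LC50, the concentration lysing 50% of cells.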

Data set [10] has as its system Candida albicans ATCC MYA-2876. Description: Biofilm formation on the surface of a bone cement implant in femur heads. The class given is cell-based. As to conditions: two days, cement without peptide 4.4x10^5.
Description: The resulting elastic paste is placed into a 2 ml plastic syringe (without needle) and pressed into the infected holes in the spongy part of the bone, where it polymerizes and hardens. For comparison, other similarly infected holes are filled with cement containing only an antibiotic or antimycotic agent. […] The mixture in an amount of 125 mg is mixed with liquid monomer (50-60 µl) and then pressed into the openings as described above. In another embodiment, the cements are applied to uninfected holes, allowed to harden, and then microbes are pipetted into the hole excavated between implants. From there they penetrate through bone tissue and settle on the implants with consequent formation of biofilms.
After two days, implants are removed with metal spikes and tweezers, mechanically cleaned from debris of bone tissue, and washed four times with physiological saline (0.5 ml) in plastic tubes to remove any residual planktonic microbes or bone cells from their surface. The implants in closed tubes with 0.4 ml saline are then sonicated four times for 3 min with occasional shaking. The of microbial biofilm on the surface of the implant is thus disrupted and microbes are loosed into the physiological saline. The resulting suspension is subsequently diluted using the tenfold serial dilution for culturing on agar. […]
Data set [11] deals with MRSA (clin. isolate Motol). It counts as cell-based, Staphylococcus aureus. To be noted: 37° C for 20 h. The method, boiled down:
as §1

Data set [12] relates to MRSA 6271. It counts as cell-based, Staphylococcus aureus. As to conditions: 37° C for 20 h. The method, boiled down:
as §1

Data set [13] relates to MRSA (clin. isolate Liberec). It counts as cell-based, Staphylococcus aureus. As to conditions: 37° C for 20 h. The method, boiled down: as §2
Data set [14] relates to Candida glabrata DSY565. Description: Biofilm formation on the surface of a bone cement implant in femur heads. The class given is cell-based. As to conditions: two days, cement without peptide 1.3x10^6.
Description: as §3
After two days, implants are removed with metal spikes and tweezers, mechanically cleaned from debris of bone tissue, and washed four times with physiological saline (0.5 ml) in plastic tubes to remove any residual planktonic microbes or bone cells from their surface. The implants in closed tubes with 0.4 ml saline are then sonicated four times for 3 min with occasional shaking. The of microbial biofilm on the surface of the implant is thus disrupted and microbes are loosed into the physiological saline. […]
Data set [15] has as its system Candida albicans yeast (clinical isolate Olomouc). Nature of the data set: Comparison of two similar halictin peptides for biofilm formation on the implant surface (yeast pipetted into a hole between implants). The class given is cell-based. To be noted: 3.5 mg peptide in 100 mg powder cement component; two days; implant without peptide 1.8 × 10^3. How it is done: The experiment was performed under similar conditions as described in Example 5. Here, 100 mg of the powder cement component was used to prepare a paste, which was mixed with in 3.5 mg of peptide XIII and subsequently 52 µl of liquid component. The resulting paste was thoroughly mixed and then pressed into a hole prepared in the spongy part of the bone. To a next hole in the spongy part of the same bone a paste was pressed, containing comparative peptide Hal 2/4 (3.5 mg) with the sequence H-[…]NH2, which was also prepared from 100 mg of the powder component and 52 µl of the liquid component. The third hole was filled with paste without peptide prepared from the same amount of components. The Candida albicans yeast (clinical isolate Olomouc), grown in YPG, was pipetted in the hole excavated between implants equidistant (approximately 1 cm) from each. From there, the yeast penetrated through the bone tissue and was deposited on the implant with consequent formation of biofilms.
Then the implants in closed tubes with 0.4 ml of saline were treated ultrasonically four times for three minutes with occasional shaking. This way, microbial biofilm on the surface of the implant was disrupted and microbes loosed into the physiological saline. The resulting suspension was then diluted in a decimal dilution series for culturing on agar. […]

Each structure is given as a SMILES string.

With `CC[C@H](C)[C@H](NC(=O)[C@H](CCCCN)NC(=O)[C@H](CCCCN)NC(=O)[C@@H](CC(C)C)NC(=O)[C@H](CC(C)C)NC(=O)[C@H](CCCCN)NC(=O)[C@H](CCSC)NC(=O)[C@H](Cc1c[nH]c2ccccc12)NC(=O)[C@H](CCCCN)NC(=O)CN)C(=O)N[C@@H](CC(C)C)C(=O)N[C@@H](CCCCN)C(N)=O` [XIII], the “Antimicrobial activity MIC” value in data set [1] was 4,0 µmol.l^-1; in data set [3] it was 5,0 µmol.l^-1; in [4] it was 32,0 µmol.l^-1; in [5] it was 8,0 µmol.l^-1; in data set [6], 2,8 µmol.l^-1; in [7] it was 10,0 µmol.l^-1. Besides, the “Antimicrobial activity MIC” value in [8] is more than 100 µM; in data set [11], 32,0 µmol.l^-1; in data set [12] it was 18,7 µmol.l^-1; in data set [13], 13,3 µmol.l^-1. For the same molecule, the CFU/implant in data set [2] is listed as 0 CFU/implant; in data set [10], 6.0x10^3 CFU/implant; in [14], 2.4x10^3 CFU/implant. For the same molecule, in data set [9], the “Hemolytic activity LC50” value was more than 400 µM. In addition, in data set [15], the “number of colonies from the surface of the implant” value is on record as “zero”.

These data come from patent EP3570868B1, “[…] ANTIMICROBIAL PEPTIDES AND THEIR APPLICATIONS FOR THE TREATMENT AND PREVENTION OF MUSCU[…]” (Ustav Organicke Chemie a Biochemie AV CR, v.v.i., priority 2017, dated 2018).
